The text below walks through data of US10239842B2, “Hydrosoluble compounds derived from benzimidazole used in treating fasciolosis” (UNIVERSIDAD NACIONAL AUTONOMA DE MEXICO, priority 2014, dated 2019).

Where two headings read alike, the source gives them in different places.

In data set [1] the test system is Fasciola hepatica. The note with it: cited from earlier work; for Efficacy against Fasciola hepatica, first fasciola age span printed for the drug / Efficacy against Fasciola hepatica, second fasciola age span for the drug: sheep, recommended dose rates, span not recoverable from the grid; for Efficacy against Fasciola hepatica, first fasciola age span printed for the drug: first (younger) age span in weeks; for Efficacy against Fasciola hepatica, second fasciola age span for the drug: second (older) age span in weeks.

Data set [2] relates to mature and juvenile fasciola. The note with it: dose of 15 mg/Kg; previous studies; cited from earlier work.
The nature of data set [3]: Studies of aqueous solubility (method reported by Yalkowski). The format is physicochemical. The conditions noted are these: determined at 25° C. The method, then: Sample was stirred at room temperature for 48 hours until reaching equilibrium between the two phases. The tube was then centrifuged at 4500 rpm for minutes at room temperature. […] Its concentration was then determined in a spectrophotometer at 350 nm.

The nature of data set [4]: Stability studies in aqueous solution by UV-HPLC. The format is physicochemical. The note with it: >95% by UV-HPLC determined at room temperature. The protocol:
Solutions were kept at room temperature (25° C.) for 26 hours (24 hour for TCBZ), and 5 mL of the samples were later diluted in 10 mL of water and analyzed by UV-HPLC.

The conditions of data set [5]: TCBZ solubility reported in literature; cited from earlier work.
Data set [6] deals with Fasciola hepatica. Briefly: In-vitro evaluation of fasciolicide efficacy on artificially excysted fasciola. The format is cell-based. The method, then:
In order to evaluate the anti-fasciola effect of compounds 5 and 6 as mixture of regioisomers, artificially excysted fasciola were used (approximately six hours after excystment), according to the disclosure by Ibarra and Jenkins, (1984). Briefly, recently excysted fasciola are suspended in 90 ml of Roswell Park Memorial Institute (RPMI)-1640® culture media plus 90 ml of bovine serum and 1.5 ml of antibiotics (Penicillin and Streptomycin) at a density of 100 individuals/ml.
5 mg of experimental compound was used and placed in a universal bottle (30 ml capacity), to which 0.1 ml of methanol was added to dissolve the compound. From this point, required dilutions are carried out with distilled water to prepare concentrations of 50 and 10 mg/l.
24-well NUNC® culture dishes were used and 1.6 ml of culture medium (RPMI/bovine serum), 0.2 ml of the compound concentration to be tested and 0.2 ml of RPMI containing 10 fasciola per well are placed into each well. Control wells which contain fasciola without compound are used per each dish, further including a control group with a reference drug (Triclabendazole-Fasinex®-Novartis). Each concentration is carried out three times. Each sample remains under incubation at 37° C. during 4 days under a 5% CO2 atmosphere.
Fasciola under study are examined at 24, 48 and 72 hours post-exposure to compound through an inverted microscope at 40×. Extract activity is measured by comparing survival of treated fasciola with control group fasciola. All procedures are carried out under aseptic conditions in a laminar flow hood.
Efficacy is measured by using the following formula (Abbott, 2004): % Efficacy=[Fasciola in control group−Fasciola in treated group]/[[…]]
The extract is considered to have fasciolicide activity when showing an in vitro efficacy higher than 80%. (Ibarra & Jenkins, 1984; Elango & Rahuman, 2011; Ibarra et al, 2013).

For data set [7] the following is noted: cited from earlier work.
Setting [8] is: 24 h, read-out: EFFICACY (%) 1st Test, mortality percentage.
The mark [9] stands for this setting: 24 h, read-out: EFFICACY (%) 2nd Test, mortality percentage.
Where [10] appears, read: 24 h, read-out: EFFICACY (%) 3rd Test, mortality percentage.
Where [11] appears, read: 24 h, read-out: EFFICACY (%) Average, mortality percentage.
[12] abbreviates: 48 h, read-out: EFFICACY (%) 1st Test, mortality percentage.
Where [13] appears, read: 48 h, read-out: EFFICACY (%) 2nd Test, mortality percentage.
Setting [14] is: 48 h, read-out: EFFICACY (%) 3rd Test, mortality percentage.
The mark [15] stands for this setting: 48 h, read-out: EFFICACY (%) Average, mortality percentage.
[16] abbreviates: 72 h, read-out: EFFICACY (%) 1st Test, mortality percentage.
Where [17] appears, read: 72 h, read-out: EFFICACY (%) 2nd Test, mortality percentage.
The mark [18] stands for this setting: 72 h, read-out: EFFICACY (%) 3rd Test, mortality percentage.
[19] abbreviates: 72 h, read-out: EFFICACY (%) Average, mortality percentage.

With `CCCSc1ccc2nc(NC(=O)OC)[nH]c2c1` [Albendazole], the “efficacy over Fasciola hepatica” value with Fasciola hepatica [1] (fasciola age weeks 10-11) is 50-70%; in the data set on Fasciola hepatica [1] (fasciola age weeks 12-14) it was 80-90%.

As for `CSc1nc2cc(Oc3cccc4ccccc34)c(Cl)cc2[nH]1` [Alpha compound, 5-Chloro-2-(methylthio)-6-(1-naphthyloxy)-1H-benzimidazole], in data set [2], the “efficacy against mature and juvenile fasciola” value was 86.9%. The “Aqueous solubility pH 7” value in data set [3] is 2.6×10^−4 mg/mL. In data set [4], the “Aqueous solubility (h) pH 7 [chemical stability]” value is on record as greater than 26 h.

For `Nc1cc(C(Cl)=C(Cl)Cl)c(S(N)(=O)=O)cc1S(N)(=O)=O` [Closuron], the “Efficacy against Fasciola hepatica, first fasciola age span printed for the drug” value in the data set on Fasciola hepatica [1] is 90-99%.

In the case of `CC(=O)Nc1ccc(OCCOCCOc2ccc(NC(C)=O)cc2)cc1` [Diamphenetide], in the data set with Fasciola hepatica [1] (7-week adult fasciola), the “efficacy in adult fasciola” value was “not being effective”. In the data set with Fasciola hepatica [1], the “Efficacy against Fasciola hepatica, first fasciola age span printed for the drug” value is recorded as 91-100% and the “Efficacy against Fasciola hepatica, second fasciola age span for the drug” value (“Efficacy … second fasciola age span for the drug” below) is given as 50-80%.

Turning to `O=C(Nc1ccc(Oc2ccc(Cl)cc2)c(Cl)c1)c1cc(I)cc(I)c1O` [Rafoxanide], in the data set on Fasciola hepatica [1], the “Efficacy … second fasciola age span for the drug” value is reported as 91-99%.

For orientation: mortality means the share of the test organisms that died. `CSc1nc2cc(Oc3cccc(Cl)c3Cl)c(Cl)cc2[nH]1` [Triclabendazole]: in data set [5], the “Aqueous solubility pH 7” value was 2.0 × 10^−4 mg/mL. Besides, the “Aqueous solubility (h) pH 7 [chemical stability]” value in data set [4] is on record as greater than 24 h. Further, the mortality at 10 µg/mL with Fasciola hepatica [6] (setting [8]), in the data set with Fasciola hepatica [6] (setting [9]), in the data set with Fasciola hepatica [6] (setting [10]), in the data set on Fasciola hepatica [6] (setting [11]), in the data set on Fasciola hepatica [6] (setting [12]) and in the data set with Fasciola hepatica [6] (setting [13]) was 100% in each case. In addition, the mortality at 10 µg/mL with Fasciola hepatica [6] (setting [14]), with Fasciola hepatica [6] (setting [15]), in the data set on Fasciola hepatica [6] (setting [16]), with Fasciola hepatica [6] (setting [17]), in the data set with Fasciola hepatica [6] (setting [18]) and with Fasciola hepatica [6] (setting [19]) was 100% in each case. In addition, the mortality at 50 µg/mL in the data set on Fasciola hepatica [6] (setting [8]), with Fasciola hepatica [6] (setting [9]), in the data set on Fasciola hepatica [6] (setting [10]), in the data set with Fasciola hepatica [6] (setting [11]), with Fasciola hepatica [6] (setting [12]) and in the data set with Fasciola hepatica [6] (setting [13]) was 100% each time. Moreover, the mortality at 50 µg/mL with Fasciola hepatica [6] (setting [14]), in the data set on Fasciola hepatica [6] (setting [15]), in the data set on Fasciola hepatica [6] (setting [16]), in the data set with Fasciola hepatica [6] (setting [17]), with Fasciola hepatica [6] (setting [18]) and in the data set on Fasciola hepatica [6] (setting [19]) was 100% in each case. For the same molecule, in data set [7] (orally administered), the “absorbed fraction of administered dose” value is on record as 5%. Also, in data set [7] (share of dose), the “plasma levels of triclabendazole as sulfoxide” value is given as 5%. Also, the removed in feces in data set [7] (share of dose) is 92%. Moreover, the removed in milk in data set [7] (share of dose) is recorded as 1%. The removed in urine in data set [7] (share of dose) is listed as 2%. For the same molecule, in the data set on Fasciola hepatica [1], the “Efficacy … second fasciola age span for the drug” value is 91-99%.
